# Laboratory results from patent US20040167226A1, “Methods for the treatment of pain and traumatic injury using benzamides and compositions containing the same” (priority 2002, published 2004).
# System: Taxol-induced mechanical allodynia
# Experiment: Taxol-induced neuropathic pain rat model, 50% paw withdrawal threshold (up-down method)
# Type: in vivo, Sprague-Dawley rats
# Details: rats
# Excerpt: Sprague-Dawley male rats with 150-160 grams of body weight were used in the studies presented herein. Rats were trained in the enclosure one hour per day in the morning for a one week period prior to obtaining the baseline response. Whereas the mouse studies assessed percentage of response, the rat studies determined 50% of the paw withdrawal threshold, also called the up-down method as developed by Chung and colleagues. In order to obtain consistent data, naïve rats with paw withdrawal threshold no less than 4 grams were included for further studies. Taxol at a dose of 1 mg/kg (body weight) was administered daily to rats intraperitoneally. As observed in mice, the rats treated with Taxol daily developed stable mechanical allodynia on day 9 and thereafter. On day 13 and day 14 of Taxol induction, the rats pain behavior in term of 50% of paw withdrawal threshold was measured. Only those rats with paw withdrawal threshold measurements no greater than 7 grams for two consecutive days were included for drug testing. Generally speaking, the mechanical allodynia in Taxol treated rats fell in the range of 1-4 gram of paw withdrawal threshold.
# 1 ml per kg of body weight of either 50 mg/ml or 20 mg/ml of Compound A was administered to rats via oral gavage feeding (p.o.), to yield a dose of either 50 mg/Kg (body weight) or 20 mg/Kg (body weight). The same corresponding volume of 1% methylcellulose was used as vehicle control. 34 male Sprague-Dawely rats were employed for the study. The baseline paw withdrawal threshold (grams of force applied to the plantar area of the right hind paw) and neuropathic pain induction with daily intraperitoneal administration of 1 mg/kg (body weight) was performed as indicated in the previous section. The Taxol treatment was continued for 15 days until the pain threshold remained relatively stable. Animals with baseline greater than 4 grams and with threshold […] post induction were included in the drug testing. 27 rats met the criteria for the next step studies and were randomly assigned into four groups. Group 1 consisting of 7 rats was given 1% methylcellulose as vehicle control group, 1 ml of vehicle per kilograms of body weight was administered to animal via p.o.; group 2 with 6 animals was dosed at 20 mg/kg (body weight) of Compound A via oral gavage feeding (p.o.); group 3 with 7 rats was dosed at 50 mg/kg of Compound A, and the fourth group with 7 rats received Gabapentine at 50 mg/kg via p.o. in the same vehicle as a positive control group. Those rats were habituated in the enclosure and 50% of paw withdrawal thresholds (grams of force) were measured using a set of von Frey filaments, as described in the previous section, at time points of 1, 2, 3, 6, and 24 hours postdosing in a blinded fashion. The tester had no knowledge of which animals received drug or vehicle. It was noted that rats tested were very sleepy in the late afternoon (for 6 hour postdosing measurement), thus the data would not be reliable for 6-hour postdosing time points. […] After finishing the 24 hour postdosing measurement, the paw withdrawal threshold of each animal was calculated and data was analyzed.
# [1] = 20 mg/kg p.o. in 1% methylcellulose
smiles,measurement,setting,value
"CC(=O)Nc1ccc(C(=O)NC(C)(C)C)cc1 [Compound A, N-tert-butyl-4-acetamidobenzamide]",analgesic effect on neuropathic pain (in words),[1],has an analgesic effect
same,onset of analgesic effect,[1],fast onset (one-hour postdosing)
same,time of peak analgesic effect postdosing,[1],2 h
same,paw withdrawal threshold,"20 mg/kg p.o. in 1% methylcellulose, vehicle about 4 grams",greater than 7 grams
same,pain blocking effect (in words),50 mg/kg p.o. in 1% methylcellulose,"showed a pain blocking effect at 1 hour postdosing, with the effect diminished later on"
same,analgesic effect compared with positive control,Compound A 20 mg/kg p.o. vs Gabapentine 50 mg/kg p.o.,comparable to the positive control
